Measured values reported in patent US20240327364A1, “THERAPEUTIC TARGETING OF GPR68 TO INDUCE FERROPTOSIS” (University Of Maryland, Baltimore, priority 2023, published 2024).

Key:
[1] = target: T1, ABL1(Q252H)-nonphosphorylated (Homo sapiens, UniProt P00519, Q252H); test: KinomeScan; assay type: binding; settings: read-out: % Control
T1 construct: purchased DiscoveRx

CDC2L1 = target: T2, CDC2L1 (Homo sapiens, UniProt P21127); test: KinomeScan; assay type: binding; settings: read-out: % Control
T2 construct: purchased DiscoveRx (KinomeScan service)

EGFR(E746-A750del) = target: T3, EGFR(E746-A750del) (Homo sapiens, UniProt P00533, DEL746-750); test: KinomeScan; assay type: binding; settings: read-out: % Control
T3 construct: purchased DiscoveRx (Fremont, CA), KinomeScan service

EGFR(G719S) = target: T4, EGFR(G719S) (Homo sapiens, UniProt P00533, G719S); test: KinomeScan; assay type: binding; settings: read-out: % Control
T4 construct: purchased DiscoveRx (Fremont, CA), KinomeScan service

EGFR(L861Q) = target: T5, EGFR(L861Q) (Homo sapiens, UniProt P00533, L861Q); test: KinomeScan; assay type: binding; settings: read-out: % Control
T5 construct: purchased DiscoveRx (Fremont, CA), KinomeScan service

ERK5 = target: T6, ERK5 (Homo sapiens, UniProt Q13164); test: KinomeScan; assay type: binding; settings: read-out: % Control
T6 construct: purchased DiscoveRx (Fremont, CA)

ERN1 = target: T7, ERN1 (Homo sapiens, UniProt O75460); test: KinomeScan; assay type: binding; settings: read-out: % Control
T7 construct: purchased DiscoveRx (Fremont, CA)

HIPK3 = target: T8, HIPK3 (Homo sapiens, UniProt Q9H422); test: KinomeScan; assay type: binding; settings: read-out: % Control
T8 construct: purchased DiscoveRx (Fremont, CA)

[2] = target: T9, JAK3(JH1domain-catalytic) (Homo sapiens, UniProt P52333); test: KinomeScan; assay type: binding; settings: read-out: % Control
T9 construct: JAK3(JH1domain-catalytic); purchased DiscoveRx (Fremont, CA)
T9 sequence (P52333 822-1111 limits assumed): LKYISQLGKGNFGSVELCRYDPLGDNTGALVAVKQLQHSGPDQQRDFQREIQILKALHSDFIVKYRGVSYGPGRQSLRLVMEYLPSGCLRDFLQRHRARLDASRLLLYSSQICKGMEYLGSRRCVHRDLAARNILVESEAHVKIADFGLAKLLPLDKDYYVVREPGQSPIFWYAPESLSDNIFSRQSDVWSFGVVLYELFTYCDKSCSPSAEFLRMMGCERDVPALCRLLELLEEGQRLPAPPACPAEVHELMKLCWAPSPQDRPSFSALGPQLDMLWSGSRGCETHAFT

KIT(V559D, T670I) = target: T10, KIT(V559D, T670I) (Homo sapiens, UniProt P10721, T670I/V559D); test: KinomeScan; assay type: binding; settings: read-out: % Control
T10 construct: purchased DiscoveRx

MAK = target: T11, MAK (Homo sapiens, UniProt P20794); test: KinomeScan; assay type: binding; settings: read-out: % Control
T11 construct: purchased DiscoveRx
T11 sequence (P20794 whole entry): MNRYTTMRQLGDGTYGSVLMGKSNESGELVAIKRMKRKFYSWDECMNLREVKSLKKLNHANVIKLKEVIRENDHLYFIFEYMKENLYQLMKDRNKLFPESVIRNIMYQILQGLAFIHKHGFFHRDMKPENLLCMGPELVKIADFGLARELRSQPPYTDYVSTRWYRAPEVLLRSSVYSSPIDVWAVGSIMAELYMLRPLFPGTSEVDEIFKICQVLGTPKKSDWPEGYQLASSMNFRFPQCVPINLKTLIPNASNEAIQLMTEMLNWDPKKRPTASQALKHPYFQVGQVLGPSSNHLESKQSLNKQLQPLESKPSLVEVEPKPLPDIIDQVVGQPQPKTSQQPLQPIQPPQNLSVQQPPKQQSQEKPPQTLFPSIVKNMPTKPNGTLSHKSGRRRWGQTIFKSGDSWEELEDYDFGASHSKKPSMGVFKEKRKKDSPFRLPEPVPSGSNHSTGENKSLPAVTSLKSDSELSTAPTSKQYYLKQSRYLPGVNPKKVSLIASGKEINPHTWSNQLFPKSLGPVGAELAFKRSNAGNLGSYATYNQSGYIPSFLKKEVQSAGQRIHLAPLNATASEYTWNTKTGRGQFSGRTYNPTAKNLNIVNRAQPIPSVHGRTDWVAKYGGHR

MARK3 = target: T12, MARK3 (Homo sapiens, UniProt P27448); test: KinomeScan; assay type: binding; settings: read-out: % Control
T12 construct: purchased DiscoveRx (Fremont, CA)

PFTAIRE2 = target: T13, PFTAIRE2 (Homo sapiens, UniProt Q96Q40); test: KinomeScan; assay type: binding; settings: read-out: % Control
T13 construct: purchased DiscoveRx (Fremont, CA)

PIP5K2C = target: T14, PIP5K2C (Homo sapiens, UniProt Q8TBX8); test: KinomeScan; assay type: binding; settings: read-out: % Control
T14 construct: purchased DiscoveRx (Fremont, CA)

PKNB(M. tuberculosis) = target: T15, PKNB(M. tuberculosis) (Mycobacterium tuberculosis, UniProt P9WI81); test: KinomeScan; assay type: binding; settings: read-out: % Control
T15 construct: purchased DiscoveRx (Fremont, CA)

PRKG1 = target: T16, PRKG1 (Homo sapiens, UniProt Q13976); test: KinomeScan; assay type: binding; settings: read-out: % Control
T16 construct: purchased DiscoveRx (Fremont, CA)

RIOK1 = target: T17, RIOK1 (Homo sapiens, UniProt Q9BRS2); test: KinomeScan; assay type: binding; settings: read-out: % Control
T17 construct: purchased DiscoveRx (Fremont, CA)

SIK = target: T18, SIK (Homo sapiens, UniProt P57059); test: KinomeScan; assay type: binding; settings: read-out: % Control
T18 construct: purchased DiscoveRx (Fremont, CA)
T18 sequence (P57059 whole entry): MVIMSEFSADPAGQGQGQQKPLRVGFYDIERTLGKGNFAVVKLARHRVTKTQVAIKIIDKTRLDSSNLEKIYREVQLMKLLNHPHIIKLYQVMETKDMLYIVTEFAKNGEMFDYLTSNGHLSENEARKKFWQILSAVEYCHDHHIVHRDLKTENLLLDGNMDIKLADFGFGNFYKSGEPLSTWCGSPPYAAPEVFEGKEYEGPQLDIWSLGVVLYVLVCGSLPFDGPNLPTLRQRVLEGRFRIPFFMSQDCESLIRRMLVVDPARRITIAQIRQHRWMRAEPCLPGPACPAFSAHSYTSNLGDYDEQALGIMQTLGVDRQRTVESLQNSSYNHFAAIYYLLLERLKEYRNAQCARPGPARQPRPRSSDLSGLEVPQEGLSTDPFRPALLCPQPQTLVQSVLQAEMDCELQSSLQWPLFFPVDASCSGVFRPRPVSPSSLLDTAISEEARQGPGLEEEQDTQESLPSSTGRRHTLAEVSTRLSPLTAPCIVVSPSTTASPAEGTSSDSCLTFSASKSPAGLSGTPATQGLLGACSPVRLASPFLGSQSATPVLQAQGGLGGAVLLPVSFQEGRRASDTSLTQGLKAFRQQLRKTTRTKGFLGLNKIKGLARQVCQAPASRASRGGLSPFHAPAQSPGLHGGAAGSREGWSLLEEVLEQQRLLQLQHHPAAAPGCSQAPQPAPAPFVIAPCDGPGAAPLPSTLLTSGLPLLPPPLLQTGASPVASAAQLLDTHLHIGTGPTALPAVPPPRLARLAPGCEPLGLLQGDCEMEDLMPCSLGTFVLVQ

SLK = target: T19, SLK (Homo sapiens, UniProt Q9H2G2); test: KinomeScan; assay type: binding; settings: read-out: % Control
T19 construct: purchased DiscoveRx (Fremont, CA)

A3 = target: T20, A3 (Homo sapiens, UniProt P0DMS8); test: GPCR Profiler; assay type: cell-based
T20 construct: host or cells: Chem-1 cells with promiscuous Gα15
T20 sequence (P0DMS8 whole entry): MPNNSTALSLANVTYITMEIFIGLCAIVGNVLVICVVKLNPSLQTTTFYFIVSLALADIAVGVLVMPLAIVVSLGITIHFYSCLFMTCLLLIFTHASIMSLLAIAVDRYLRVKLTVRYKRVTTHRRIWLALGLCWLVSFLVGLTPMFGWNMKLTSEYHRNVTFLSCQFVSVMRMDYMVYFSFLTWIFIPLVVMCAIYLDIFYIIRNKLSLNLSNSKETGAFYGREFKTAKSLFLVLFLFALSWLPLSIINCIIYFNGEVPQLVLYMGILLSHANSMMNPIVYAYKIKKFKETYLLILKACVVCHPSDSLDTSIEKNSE

C3aR = target: T21, C3aR (Homo sapiens, UniProt Q16581); test: GPCR Profiler; assay type: cell-based
T21 construct: host or cells: Chem-1 cells with promiscuous Gα15
T21 sequence (Q16581 whole entry, species assumed): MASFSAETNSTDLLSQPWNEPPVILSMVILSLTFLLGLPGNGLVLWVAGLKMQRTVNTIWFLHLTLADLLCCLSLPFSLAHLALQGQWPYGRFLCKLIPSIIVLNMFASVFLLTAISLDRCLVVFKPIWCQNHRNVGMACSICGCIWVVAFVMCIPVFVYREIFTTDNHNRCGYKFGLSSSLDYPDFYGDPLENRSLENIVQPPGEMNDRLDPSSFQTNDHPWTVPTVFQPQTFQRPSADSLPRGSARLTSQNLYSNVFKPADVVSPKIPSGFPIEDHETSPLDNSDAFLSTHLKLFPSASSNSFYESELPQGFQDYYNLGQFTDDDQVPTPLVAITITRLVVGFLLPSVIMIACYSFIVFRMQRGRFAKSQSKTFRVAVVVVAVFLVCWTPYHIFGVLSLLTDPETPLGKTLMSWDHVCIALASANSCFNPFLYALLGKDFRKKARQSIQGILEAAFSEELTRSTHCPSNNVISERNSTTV

ETB = target: T22, ETB (Homo sapiens, UniProt P24530); test: GPCR Profiler; assay type: cell-based
T22 construct: host or cells: Chem-1 cells expressing Gα15
T22 sequence (P24530 27-442): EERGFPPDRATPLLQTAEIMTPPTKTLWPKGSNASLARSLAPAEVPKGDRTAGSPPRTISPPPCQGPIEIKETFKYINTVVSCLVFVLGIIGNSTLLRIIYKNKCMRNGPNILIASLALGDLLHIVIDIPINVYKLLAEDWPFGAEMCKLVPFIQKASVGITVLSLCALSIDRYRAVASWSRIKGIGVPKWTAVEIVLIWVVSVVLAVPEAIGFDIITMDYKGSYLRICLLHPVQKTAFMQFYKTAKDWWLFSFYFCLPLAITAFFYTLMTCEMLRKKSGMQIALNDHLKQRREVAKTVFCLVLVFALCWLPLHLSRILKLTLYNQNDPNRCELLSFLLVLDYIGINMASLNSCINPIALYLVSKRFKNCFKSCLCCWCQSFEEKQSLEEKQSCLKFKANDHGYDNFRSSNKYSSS

GIP = target: T23, GIP (Homo sapiens, UniProt P48546); test: GPCR Profiler; assay type: cell-based
T23 construct: host or cells: Chem-1 cells expressing Gα15
T23 sequence (P48546 22-466): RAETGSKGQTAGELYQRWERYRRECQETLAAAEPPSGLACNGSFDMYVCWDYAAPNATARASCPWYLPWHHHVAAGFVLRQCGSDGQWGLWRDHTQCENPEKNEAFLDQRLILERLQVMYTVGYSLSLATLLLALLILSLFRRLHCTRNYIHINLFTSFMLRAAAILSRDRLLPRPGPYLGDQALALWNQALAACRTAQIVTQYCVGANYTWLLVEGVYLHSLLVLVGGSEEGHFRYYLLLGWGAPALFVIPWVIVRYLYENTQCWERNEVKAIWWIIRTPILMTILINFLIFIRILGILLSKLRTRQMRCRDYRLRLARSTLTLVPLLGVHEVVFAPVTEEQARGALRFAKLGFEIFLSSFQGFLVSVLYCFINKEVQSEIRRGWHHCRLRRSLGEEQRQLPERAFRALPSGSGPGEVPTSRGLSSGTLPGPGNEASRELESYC

NTR1 = target: T24, NTR1 (Homo sapiens, UniProt P30989); test: GPCR Profiler; assay type: cell-based
T24 construct: host or cells: Chem-1 cells expressing Gα15
T24 sequence (P30989 whole entry, species assumed): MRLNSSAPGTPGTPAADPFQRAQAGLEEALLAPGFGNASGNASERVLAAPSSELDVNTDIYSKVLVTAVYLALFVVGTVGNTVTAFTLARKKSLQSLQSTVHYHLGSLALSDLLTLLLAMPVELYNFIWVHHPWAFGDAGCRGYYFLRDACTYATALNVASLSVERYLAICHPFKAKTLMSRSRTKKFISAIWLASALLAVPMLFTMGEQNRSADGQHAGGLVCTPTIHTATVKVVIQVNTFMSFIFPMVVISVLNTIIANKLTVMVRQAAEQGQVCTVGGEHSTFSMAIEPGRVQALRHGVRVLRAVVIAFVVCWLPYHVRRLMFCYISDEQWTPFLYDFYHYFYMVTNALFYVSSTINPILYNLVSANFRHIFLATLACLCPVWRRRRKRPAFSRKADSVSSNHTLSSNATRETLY

OX1 = target: T25, OX1 (Homo sapiens, UniProt O43613); test: GPCR Profiler; assay type: cell-based
T25 construct: host or cells: Chem-1 cells expressing Gα15
T25 sequence (O43613 whole entry): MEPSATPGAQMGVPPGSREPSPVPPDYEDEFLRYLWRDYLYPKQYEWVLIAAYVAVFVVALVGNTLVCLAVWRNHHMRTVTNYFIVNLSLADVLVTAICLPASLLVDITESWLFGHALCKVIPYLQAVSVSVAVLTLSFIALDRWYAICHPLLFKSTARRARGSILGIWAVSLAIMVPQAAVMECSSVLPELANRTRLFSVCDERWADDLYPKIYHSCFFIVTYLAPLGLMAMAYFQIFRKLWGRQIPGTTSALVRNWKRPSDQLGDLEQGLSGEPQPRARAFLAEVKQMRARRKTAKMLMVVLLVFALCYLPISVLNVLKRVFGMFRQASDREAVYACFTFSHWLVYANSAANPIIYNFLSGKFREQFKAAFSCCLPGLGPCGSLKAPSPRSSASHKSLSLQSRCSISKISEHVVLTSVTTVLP

PK2 = target: T26, PK2 (Homo sapiens, UniProt Q8NFJ6); test: GPCR Profiler; assay type: cell-based
T26 construct: host or cells: Chem-1 cells with Gα15
T26 sequence (Q8NFJ6 whole entry): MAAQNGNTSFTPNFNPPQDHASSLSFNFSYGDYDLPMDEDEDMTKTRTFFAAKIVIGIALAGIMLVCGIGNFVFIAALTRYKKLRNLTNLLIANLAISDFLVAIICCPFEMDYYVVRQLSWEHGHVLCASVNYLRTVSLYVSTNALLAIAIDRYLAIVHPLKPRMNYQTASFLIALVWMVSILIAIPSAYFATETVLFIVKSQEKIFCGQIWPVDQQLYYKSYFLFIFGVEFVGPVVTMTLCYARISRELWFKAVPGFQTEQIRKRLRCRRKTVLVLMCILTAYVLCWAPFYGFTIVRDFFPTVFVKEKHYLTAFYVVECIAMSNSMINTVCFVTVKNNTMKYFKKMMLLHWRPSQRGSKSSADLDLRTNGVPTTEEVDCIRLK

panel of 442 kinases = test: KinomeScan panel (summary); assay type: binding; settings: 10 uM
GPR68 = GPR68 (Homo sapiens, UniProt Q15743); test: GPCR Profiler; assay type: cell-based; set-up: host or cells: Chem-1 cells (Chem1-OGR1)
Sequence of GPR68 (Q15743 whole entry): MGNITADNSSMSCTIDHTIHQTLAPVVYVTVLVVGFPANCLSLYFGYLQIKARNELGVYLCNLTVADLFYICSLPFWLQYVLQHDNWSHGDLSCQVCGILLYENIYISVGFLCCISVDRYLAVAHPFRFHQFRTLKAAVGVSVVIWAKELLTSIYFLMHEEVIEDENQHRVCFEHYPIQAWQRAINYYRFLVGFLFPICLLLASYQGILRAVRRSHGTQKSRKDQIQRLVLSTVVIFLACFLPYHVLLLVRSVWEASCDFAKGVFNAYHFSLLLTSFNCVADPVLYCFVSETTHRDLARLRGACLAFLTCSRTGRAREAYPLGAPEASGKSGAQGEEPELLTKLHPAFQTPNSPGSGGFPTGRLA

[3] = tested on: ALI induced by HTV, LPS and both; test: HTV mechanical ventilation / LPS acute lung injury; assay type: in vivo, C57Bl mice
Description: FIG. 38A through FIG. 38D: High-tidal volume (HTV) mechanical ventilation causes ALI and exacerbates ALI caused by LPS (“two-hit”) in C57Bl mice, and OGM2 attenuates these effects. […] Lungs from mice treated with OGM2 are marked with “+”. […] Here, OGM and OGM8345=OGM2.

`CCc1ccc2c(c1)C1(NN=C(c3cccc4ccccc34)S1)C(=O)N2` (stereo not shown) [OGM1, 5-ethyl-5′-naphthalen-1-ylspiro[1H-indole-3,2′-3H-1,3,4-thiadiazole]-2-one] showed a remaining binding at 10 µM [1] of 84%, a remaining binding at 10 µM (CDC2L1) of 92% and a remaining binding at 10 µM (EGFR(E746-A750del)) of 100%. For the same compound, the remaining binding at 10 µM (EGFR(G719S)) was 95%, the remaining binding at 10 µM (EGFR(L861Q)) was 100% and the remaining binding at 10 µM (ERK5) was 89%. It also gave a remaining binding at 10 µM (ERN1) of 72%, a remaining binding at 10 µM (HIPK3) of 67% and a remaining binding at 10 µM [2] of 84%. The remaining binding at 10 µM (KIT(V559D, T670I)) was 77%, the remaining binding at 10 µM (MAK) was 90% and the remaining binding at 10 µM (MARK3) was 100%. For the same compound, the remaining binding at 10 µM (PFTAIRE2) was 93%, the remaining binding at 10 µM (PIP5K2C) was 100% and the remaining binding at 10 µM (PKNB(M. tuberculosis)) was 79%. The remaining binding at 10 µM (PRKG1) was 100%, the remaining binding at 10 µM (RIOK1) was 100% and the remaining binding at 10 µM (SIK) was 95%. The remaining binding at 10 µM (SLK) was 90%, the Antagonism (A3; 10 uM) was 3.2 and the Agonism (A3; 12.5 uM) was −0.4. It also gave an Antagonism (C3aR; 10 uM) of 5.4, an Agonism (C3aR; 12.5 uM) of 0.2 and an Antagonism (ETB; 10 uM) of −1.6. It also gave an Agonism (ETB; 12.5 uM) of 9.1, an Antagonism (GIP; 10 uM) of 0.2 and an Agonism (GIP; 12.5 uM) of 1.5. For the same compound, the Antagonism (NTR1; 10 uM) was 1.6, the Agonism (NTR1; 12.5 uM) was 1 and the Antagonism (OX1; 10 uM) was 1.6. It also gave an Agonism (OX1; 12.5 uM) of 1.4, an Antagonism (PK2; 10 uM) of 7.2 and an Agonism (PK2; 12.5 uM) of −0.1. The “interaction with kinase domains” value (panel of 442 kinases) was “did not physically interact with the kinase domain of any kinase”, the Antagonism (GPR68; 10 uM) was 70.8 and the Agonism (GPR68; 12.5 uM) was −7.6.
With `CCc1ccc2c(c1)C1(NN=C(c3ccccc3)S1)C(=O)N2` (stereo not shown) [OGM2] the “lung vascular leak (Evans blue)” value ([3]; OGM2 40 mg/kg ip 15 minutes before HTV) was “significantly attenuated lung vascular leak”, the BAL cell count ([3]; mouse, in vivo) was “significantly attenuated the rise” and the BAL protein concentration ([3]; mouse, in vivo) was “significantly attenuated the rise”. For the same compound, the “inflammatory cytokine mRNA expression” value ([3]; mouse, in vivo) was “blunted the rise”.
